pIC50: −log10 of the molar value.
Key:
human LSD1 = human LSD1 (Homo sapiens (Human), UniProt O60341); assay: Evaluation of enzyme activity: LSD1 fluorescence coupling enzyme assay (HRP/Amplex Red); format: biochemical; conditions: human LSD1, histone H3(1-21)K4me2 peptide 10 μM, 30 min pre-incubation
Protocol: The purpose of this test is to test the in vitro inhibitory activities of the compounds against LSD1. The enzyme used in this experiment was human LSD1, and the standard substrate was histone H3(1-21)K4me2 peptide (10 μM). HCI-2509 (SP2509) was used as reference compound, and the fluorescence coupling enzyme assay was employed. The production of FAD-dependent H2O2 as a result of demethylase activity of LSD1 was measured by coupling with HRP and Amplex Red. Compounds as well as control compound HCl-2509 were tested in 10-dose IC50 mode with a 3-fold serial dilution in duplicate starting at 10 μm. All compounds were pre-incubated 30 mins with enzyme before added substrate to start reaction. Fluorescence measurement: Ex/Em=535/590 by EnVision.
The test compound's inhibitory activities against LSD11 was classified as: + for IC50≤50 nM; ++ for IC50>50 nM and ≤100 nM; +++ for IC50>100 nM and ≤500 nM, and the results are shown in Table 1.

H1417 cells = assay: Cell proliferation inhibitory activity on H1417 cells (CellTiter-Glo, 10 days); format: cell-based, human; conditions: Homo sapiens; for pIC50: NCI-H1417, 240 h, H1417 cells, 10 days incubation; for Emax: NCI-H1417, H1417 cells, highest percentage inhibition of cell viability, read-out: Maximum inhibition percentage (%)
Protocol: Experimental purposes: To test the proliferation inhibitory activities of the test compounds on H1417 cells.
Experimental materials: RPMI 1640 medium, fetal bovine serum, Promega CellTiter-Glo reagent. The H1417 cell line purchased from ATCC. Envision Multi-Label Analyzer (PerkinElmer).
Experimental method: H1417 cells were seeded in a black 384-well plate, 1000 cells per well in […] of cell suspension. The test compounds were diluted 3-fold with Epmotion to the 10th concentration i.e, the compounds were diluted from 10 mmol to […], and a double duplicate well experiment was set. 198 μL medium was added to the middle plate, according to the corresponding position, 2 μL gradient diluted compounds were added to the middle plate. The mixture was mixed evenly and transferred 20 μL per well to the cell plates. The cell plates were incubated in a carbon dioxide incubator for 10 days. 25 μL of Promega CellTiter-Glo reagent per well was added to the cell plate and the mixture was incubated for 10 minutes at room temperature to stabilize the luminescence signal. Readings were performed by PerkinElmer Envision multi-label analyzer.
Data analysis: The original data was converted to the inhibition rate by the equation (Max-Ratio)/(Max-Min)*100%, and the value of IC50 can be obtained by curve fitting with four parameters. (Model 205 in XLFIT5, iDBS)
The growth inhibitory activities of the test compounds on H1417 cells were classified as + for IC50≤100 nM; ++ for IC50>100 nM and ≤500 nM; +++ for IC50>500 nM and ≤1000 nM; the highest percentage inhibition of cell viability was classified as: […]; 90%>B≥70%; 70%>C≥50%.

pIC50 (human LSD1) | pIC50 (H1417 cells) | Structure (SMILES) | Emax (H1417 cells) [%]
6.30 to 7.00 |  | COC(=O)c1ccc(CN2CCC(c3nc(C4(CN[C@H]5CC5c5ccccc5)CC4)no3)CC2)cc1 (single isomer, unassigned) [Example 165] | 
7.00 to 7.30 |  | CC(C)(C)n1nnc(C2(CN[C@H]3C[C@@H]3c3ccccc3)CC2)n1 [Example 3] | 
7.00 to 7.30 |  | CN(C)CC1(CN[C@H]2C[C@@H]2c2ccccc2)CC1 [Example 5] | 
6.30 to 7.00 |  | CCN(CC)CC1(CN[C@H]2CC2c2ccccc2)CC1 (stereo partly shown) [Example 7] | 
≥ 7.30 |  | Fc1ccccc1CNCC1(CN[C@H]2CC2c2ccccc2)CC1 (stereo partly shown) [Example 10] | 
≥ 7.30 |  | c1ccc(C2C[C@@H]2NCC2(CNCc3ccc[nH]3)CC2)cc1 (stereo partly shown) [Example 11] | 
7.00 to 7.30 |  | c1ccc([C@H]2C[C@@H]2NCC2(CNCc3cnc[nH]3)CC2)cc1 [Example 12] | 
≥ 7.30 |  | c1ccc(C2C[C@@H]2NCC2(CNCC3CCNC3)CC2)cc1 (stereo partly shown) [Example 13] | 
6.30 to 7.00 |  | CCn1ncnc1CNCC1(CN[C@H]2C[C@@H]2c2ccccc2)CC1 [Example 14] | 
7.00 to 7.30 |  | FC(F)(F)c1ccc(CNCC2(CN[C@H]3C[C@@H]3c3ccccc3)CC2)cn1 [Example 15] | 
6.30 to 7.00 |  | c1ccc([C@H]2C[C@@H]2NCC2(CNCc3nccs3)CC2)cc1 [Example 16] | 
7.00 to 7.30 |  | c1ccc([C@H]2C[C@@H]2NCC2(CNCc3cnc4n3CCC4)CC2)cc1 [Example 17] | 
≥ 7.30 |  | Clc1ccc2nc(C3(CN[C@H]4CC4c4ccccc4)CC3)oc2c1 (stereo partly shown) [Example 46] | 
 | 6.30 to 7.00 | Clc1ccc2oc(C3(CN[C@H]4CC4c4ccccc4)CC3)nc2c1 (stereo partly shown) [Example 47] | 50 to 70
7.00 to 7.30 |  | Clc1ccc2oc(C3(CN[C@H]4C[C@@H]4c4ccccc4)CC3)nc2c1 [Example 47] | 
≥ 7.30 |  | N#Cc1ccc(CNC2(CN[C@H]3CC3c3ccccc3)CCC2)cc1 (stereo partly shown) [Example 48] | 
 | 6.00 to 6.30 | c1ccc(C2C[C@@H]2NCC2(CN3CCc4ccncc4C3)CC2)cc1 (stereo partly shown) [Example 49] | 90 to 100
 | 6.30 to 7.00 | FC(F)(F)c1ccc2c(c1)CN(CC1(CN[C@H]3CC3c3ccccc3)CC1)CC2 (stereo partly shown) [Example 51] | 70 to 90
 | 6.00 to 6.30 | O=C(O)c1ccc2c(c1)CN(CC1(CN[C@H]3CC3c3ccccc3)CC1)CC2 (stereo partly shown) [Example 53] | 90 to 100
 | 6.00 to 6.30 | O=C(O)C1CCN(CC2(CN[C@H]3CC3c3ccccc3)CC2)CC1 (stereo partly shown) [Example 54] | 50 to 70

pIC50 (human LSD1) | pIC50 (H1417 cells) | Structure (SMILES) | Emax (H1417 cells) [%]
 | 6.30 to 7.00 | FC(F)(F)c1ccc2c(c1)CN(CC1(CN[C@H]3CC3c3ccccc3)CC1)C2 (stereo partly shown) [Example 55] | 70 to 90
 | 6.00 to 6.30 | O=C(O)c1ccc(C2CCN(CC3(CN[C@H]4CC4c4ccccc4)CC3)CC2)cc1 (stereo partly shown) [Example 56] | 50 to 70
 | 6.30 to 7.00 | c1ccc(C2C[C@@H]2NCC2(CN3CCc4ccccc4CC3)CC2)cc1 (stereo partly shown) [Example 58] | 70 to 90
 | 6.00 to 6.30 | c1ccc(C2C[C@@H]2NCC2(CN3CCCCc4ccccc43)CC2)cc1 (stereo partly shown) [Example 60] | 50 to 70
 | 6.00 to 6.30 | c1ccc(C2C[C@@H]2NCC2(CN3Cc4ccncc4C3)CC2)cc1 (stereo partly shown) [Example 61] | 50 to 70
≥ 7.30 |  | Fc1ccc(-c2nc(C3(CN[C@H]4CC4c4ccccc4)CC3)no2)cc1 (stereo partly shown) [Example 63] | 
 | 6.30 to 7.00 | O=C(O)C1CCC(c2nc(C3(CN[C@H]4CC4c4ccccc4)CC3)no2)CC1 (stereo partly shown) [Example 67] | 50 to 70
≥ 7.30 |  | c1ccc(C2C[C@@H]2NCC2(c3noc4ccccc34)CC2)cc1 (stereo partly shown) [Example 71] | 
 | 6.30 to 7.00 | c1ccc(C2C[C@@H]2NCC2(c3nc4ccccc4o3)CC2)cc1 (stereo partly shown) [Example 76] | 50 to 70
7.00 to 7.30 |  | c1ccc([C@H]2C[C@@H]2NCC2(c3nc4ccccc4o3)CC2)cc1 [Example 76] | 
 | ≥ 7.00 | c1ccc(C2C[C@@H]2NCC2(CN3CCCC3)CC2)cc1 (stereo partly shown) [Example 77] | 70 to 90
 | 6.30 to 7.00 | FC(F)(F)C1CCN(CC2(CN[C@H]3CC3c3ccccc3)CC2)CC1 (stereo partly shown) [Example 80] | 50 to 70
 | ≥ 7.00 | N#CC1CCN(CC2(CN[C@H]3CC3c3ccccc3)CC2)CC1 (stereo partly shown) [Example 81] | 50 to 70
 | 6.30 to 7.00 | O=C(O)c1ccc(CN2CCC(c3nc(C4(CN[C@H]5CC5c5ccccc5)CC4)no3)CC2)cc1 (stereo partly shown) [Example 82] | 50 to 70
6.30 to 7.00 |  | O=C(O)c1ccc(NCC2(CN[C@H]3C[C@@H]3c3ccccc3)CCC2)nc1 [Example 84] | 
≥ 7.30 |  | FC1CC(CN[C@H]2CC2c2ccccc2)(c2cccnc2)C1 (stereo partly shown) [Example 85] | 
≥ 7.30 |  | OC1CC(CN[C@H]2CC2c2ccccc2)(c2cccnc2)C1 (stereo partly shown) [Example 86] | 
≥ 7.30 |  | FC1(F)Oc2ccc(-c3nc(C4(CN[C@H]5CC5c5ccccc5)CCC4)no3)cc2O1 (stereo partly shown) [Example 93] | 
≥ 7.30 |  | COc1ccc2nc(-c3nc(C4(CN[C@H]5CC5c5ccccc5)CCC4)no3)sc2c1 (stereo partly shown) [Example 94] | 
 | 6.00 to 6.30 | Clc1ccc(-n2cc(C3(CN[C@H]4CC4c4ccccc4)CC3)nn2)cc1 (stereo partly shown) [Example 96] | 50 to 70

pIC50 (human LSD1) | pIC50 (H1417 cells) | Structure (SMILES) | Emax (H1417 cells) [%]
≥ 7.30 |  | N#Cc1ccc(C(=O)NC2(CN[C@H]3CC3c3ccccc3)CCC2)cc1 (stereo partly shown) [Example 97] | 
 | 6.30 to 7.00 | CC1CCN(CC2(CN[C@H]3CC3c3ccccc3)CC2)C1 (stereo partly shown) [Example 98] | 50 to 70
7.00 to 7.30 |  | CC1CCN(CC2(CN[C@H]3C[C@@H]3c3ccccc3)CC2)C1 (stereo partly shown) [Example 98] | 
6.30 to 7.00 |  | O=C(O)c1ccc2c(c1)CN(CC1(CN[C@H]3C[C@@H]3c3ccccc3)CC1)C2 [Example 99] | 
 | 6.00 to 6.30 | O=C(O)c1ccc2c(c1)CCN(CC1(CN[C@H]3CC3c3ccccc3)CC1)C2 (stereo partly shown) [Example 101] | 50 to 70
6.30 to 7.00 |  | O=C(O)c1ccc(-c2nc(C3(CN[C@H]4CC4c4ccccc4)CC3)no2)cn1 (stereo partly shown) [Example 102] | 
 | 6.00 to 6.30 | O=C(O)c1ccc(N2CCC(c3nc(C4(CN[C@H]5CC5c5ccccc5)CC4)no3)CC2)cc1 (stereo partly shown) [Example 103] | 50 to 70
6.30 to 7.00 |  | O=C(O)c1ccc(N2CCC(c3nc(C4(CN[C@H]5C[C@@H]5c5ccccc5)CC4)no3)CC2)cc1 [Example 103] | 
≥ 7.30 |  | O=C(O)c1ccc(N2CCC(c3nc(C4(CN[C@H]5CC5c5ccccc5)CC4)no3)CC2)cn1 (stereo partly shown) [Example 104] | 
 | 6.30 to 7.00 | CC(=O)N1CCC(c2nc(C3(CN[C@H]4CC4c4ccccc4)CC3)no2)CC1 (stereo partly shown) [Example 105] | 70 to 90
7.00 to 7.30 |  | CC(=O)N1CCC(c2nc(C3(CN[C@H]4C[C@@H]4c4ccccc4)CC3)no2)CC1 [Example 105] | 
 | 6.00 to 6.30 | CS(=O)(=O)n1cc2c(n1)CN(CC1(CN[C@H]3CC3c3ccccc3)CC1)C2 (stereo partly shown) [Example 106] | 50 to 70
6.30 to 7.00 |  | CS(=O)(=O)n1cc2c(n1)CN(CC1(CN[C@H]3C[C@@H]3c3ccccc3)CC1)C2 [Example 106] | 
6.30 to 7.00 |  | O=C(O)c1ccc(C(=O)N2CCC(c3nc(C4(CN[C@H]5C[C@@H]5c5ccccc5)CC4)no3)CC2)cc1 [Example 107] | 
 | 6.00 to 6.30 | CN(C)[C@H]1CC[C@H](c2nc(C3(CN[C@H]4CC4c4ccccc4)CC3)no2)CC1 (stereo partly shown) [Example 108] | 70 to 90
6.30 to 7.00 |  | CN(C)[C@H]1CC[C@H](c2nc(C3(CN[C@H]4C[C@@H]4c4ccccc4)CC3)no2)CC1 [Example 108] | 
 | 6.30 to 7.00 | CC1(C)CCN(CC2(CN[C@H]3CC3c3ccccc3)CC2)C1 (stereo partly shown) [Example 202] | 70 to 90
 | 6.30 to 7.00 | c1ccc(C2C[C@@H]2NCC2(CN3CCC3)CC2)cc1 (stereo partly shown) [Example 211] | 50 to 70
 | 6.30 to 7.00 | C[C@H]1CCCN1CC1(CN[C@H]2CC2c2ccccc2)CC1 (stereo partly shown) [Example 212] | 50 to 70
 | 6.30 to 7.00 | CN1CCC(c2nc(C3(CN[C@H]4CC4c4ccccc4)CC3)no2)CC1=O (stereo partly shown) [Example 218] | 70 to 90

Structure (SMILES) | pIC50 (human LSD1) | pIC50 (H1417 cells) | Emax (H1417 cells) [%]
c1ccc(C2C[C@@H]2NCC2(c3noc4ccccc34)CCC2)cc1 (stereo partly shown) [Example 72] | ≥ 7.30 |  | 
COc1ccccc1-c1nc(C2(CN[C@H]3CC3c3ccccc3)CCC2)no1 (stereo partly shown) [Example 90] | ≥ 7.30 |  | 
N#Cc1ccccc1-c1nc(C2(CN[C@H]3CC3c3ccccc3)CCC2)no1 (stereo partly shown) [Example 91] | ≥ 7.30 |  | 
N#Cc1cccc(-c2nc(C3(CN[C@H]4CC4c4ccccc4)CCC3)no2)c1 (stereo partly shown) [Example 92] | ≥ 7.30 |  | 
